# Measurements from publication PMC5218480 (PLoS ONE, 2017).
# System: MV-4-11 cells
# Experiment: Gene expression microarray analysis (Affymetrix PrimeView) and GSEA
# Assay type: cell-based, human
# Parameters: RFU PODN (11730768_x_at) / Fold change /veh PODN (11730768_x_at) / RFU LINC00158 (11744669_a_at) / Fold change /veh LINC00158 (11744669_a_at) / RFU DUSP10 (11751237_a_at) / Fold change /veh DUSP10 (11751237_a_at) / RFU ID3 (11757404_x_at) / Fold change /veh ID3 (11757404_x_at) / RFU PLEKHG5 (11737974_s_at) / Fold change /veh PLEKHG5 (11737974_s_at) / RFU LRRC4B (11730491_at) / Fold change /veh LRRC4B (11730491_at) / RFU GIMAP4 (11747438_a_at) / Fold change /veh GIMAP4 (11747438_a_at) / RFU KRT8 (11758183_x_at) / Fold change /veh KRT8 (11758183_x_at) / RFU CNN1 (11734310_a_at) / Fold change /veh CNN1 (11734310_a_at) / RFU VPS37D (11726825_at) / Fold change /veh VPS37D (11726825_at) / RFU C10orf10 (11716522_x_at) / Fold change /veh C10orf10 (11716522_x_at) / RFU KIR2DL2 /// KIR2DL4 /// KIR2DL5A /// KIR2DL5B /// KIR2DS1 /// KIR2DS2 /// KIR2DS3 /// KIR2DS4 /// KIR3DL3 /// KIR3DL3 /// KIR3DS1 (11738374_at) / Fold change /veh KIR2DL2 /// KIR2DL4 /// KIR2DL5A /// KIR2DL5B /// KIR2DS1 /// KIR2DS2 /// KIR2DS3 /// KIR2DS4 /// KIR3DL3 /// KIR3DL3 /// KIR3DS1 (11738374_at) / RFU C1QL1 (11718748_at) / Fold change /veh C1QL1 (11718748_at) / RFU TMPRSS4 (11747572_a_at) / Fold change /veh TMPRSS4 (11747572_a_at) / RFU HAMP (11756126_x_at) / Fold change /veh HAMP (11756126_x_at) / RFU RNFT2 (11725882_a_at) / Fold change /veh RNFT2 (11725882_a_at) / RFU NR4A2 (11747474_a_at) / Fold change /veh NR4A2 (11747474_a_at) / RFU ABCC12 (11746883_a_at) / Fold change /veh ABCC12 (11746883_a_at) / RFU TMEM136 (11760407_x_at) / Fold change /veh TMEM136 (11760407_x_at) / RFU CLDN22 /// WWC2 (11732394_at) / Fold change /veh CLDN22 /// WWC2 (11732394_at) / RFU HLA-DPB1 (11760878_x_at) / Fold change /veh HLA-DPB1 (11760878_x_at) / RFU SPINT1 (11716480_a_at) / Fold change /veh SPINT1 (11716480_a_at) / RFU GAP43 (11754022_s_at) / Fold change /veh GAP43 (11754022_s_at) / RFU A4GNT (11735810_at) / Fold change /veh A4GNT (11735810_at) / RFU PRB3 (11715151_x_at) / Fold change /veh PRB3 (11715151_x_at) / RFU TUBB4B (11761932_at) / Fold change /veh TUBB4B (11761932_at) / RFU CAPN14 (11732068_a_at) / Fold change /veh CAPN14 (11732068_a_at) / RFU TMCC2 (11721928_a_at) / Fold change /veh TMCC2 (11721928_a_at) / RFU IRGQ (11745062_a_at) / Fold change /veh IRGQ (11745062_a_at) / RFU FAM174B (11720279_a_at) / Fold change /veh FAM174B (11720279_a_at) / RFU TMPRSS4 (11748680_a_at) / Fold change /veh TMPRSS4 (11748680_a_at) / RFU FAM212B (11763350_a_at) / Fold change /veh FAM212B (11763350_a_at) / RFU PLEKHG5 (11743358_a_at) / Fold change /veh PLEKHG5 (11743358_a_at) / RFU ZSCAN30 (11745921_a_at) / Fold change /veh ZSCAN30 (11745921_a_at) / RFU CMKLR1 (11741424_a_at) / Fold change /veh CMKLR1 (11741424_a_at) / RFU LOC101060620 /// MAPK8IP1 (11723275_at) / Fold change /veh LOC101060620 /// MAPK8IP1 (11723275_at) / RFU SPTSSB (11747773_x_at) / Fold change /veh SPTSSB (11747773_x_at) / RFU PRSS12 (11739890_at) / Fold change /veh PRSS12 (11739890_at) / RFU BIN1 (11741810_x_at) / Fold change /veh BIN1 (11741810_x_at) / RFU WNT11 (11732464_a_at) / Fold change /veh WNT11 (11732464_a_at) / RFU C10orf10 (11716521_a_at) / Fold change /veh C10orf10 (11716521_a_at) / RFU C5orf56 (11738089_at) / Fold change /veh C5orf56 (11738089_at) / RFU CYB561 (11721691_x_at) / Fold change /veh CYB561 (11721691_x_at) / RFU ANKRD19P (11752326_a_at) / Fold change /veh ANKRD19P (11752326_a_at) / RFU OR2T12 /// OR2T33 /// OR2T8 (11738714_s_at) / Fold change /veh OR2T12 /// OR2T33 /// OR2T8 (11738714_s_at) / RFU VCAN (11748164_a_at) / Fold change /veh VCAN (11748164_a_at) / RFU JSRP1 (11732532_at) / Fold change /veh JSRP1 (11732532_at) / RFU KRTAP10-11 (11738290_x_at) / Fold change /veh KRTAP10-11 (11738290_x_at) / RFU MYO3A (11730013_a_at) / Fold change /veh MYO3A (11730013_a_at) / RFU EBF3 (11725865_a_at) / Fold change /veh EBF3 (11725865_a_at) / RFU CAMK2N1 (11719241_x_at) / Fold change /veh CAMK2N1 (11719241_x_at) / RFU C5orf56 (11738088_a_at) / Fold change /veh C5orf56 (11738088_a_at) / RFU OLFML3 (11715873_a_at) / Fold change /veh OLFML3 (11715873_a_at) / RFU LOC100653217 /// NTM (11731650_a_at) / Fold change /veh LOC100653217 /// NTM (11731650_a_at) / RFU MAPK11 (11762145_a_at) / Fold change /veh MAPK11 (11762145_a_at) / RFU FIZ1 (11724087_x_at) / Fold change /veh FIZ1 (11724087_x_at) / RFU OASL (11726364_x_at) / Fold change /veh OASL (11726364_x_at) / RFU SOX15 (11748057_x_at) / Fold change /veh SOX15 (11748057_x_at) / RFU CD79A (11719716_a_at) / Fold change /veh CD79A (11719716_a_at) / RFU HIST1H1D (11736915_at) / Fold change /veh HIST1H1D (11736915_at) / RFU CASKIN2 (11723855_a_at) / Fold change /veh CASKIN2 (11723855_a_at) / RFU LOC730098 (11760151_x_at) / Fold change /veh LOC730098 (11760151_x_at) / RFU OR4N2 (11742367_at) / Fold change /veh OR4N2 (11742367_at) / RFU PRRT2 (11749266_a_at) / Fold change /veh PRRT2 (11749266_a_at) / RFU SNX32 (11753110_a_at) / Fold change /veh SNX32 (11753110_a_at) / RFU CDHR5 (11726645_a_at) / Fold change /veh CDHR5 (11726645_a_at) / RFU RCAN1 (11760418_a_at) / Fold change /veh RCAN1 (11760418_a_at) / RFU FAM167A (11723789_a_at) / Fold change /veh FAM167A (11723789_a_at) / RFU FAM26E (11764081_at) / Fold change /veh FAM26E (11764081_at) / RFU ISYNA1 (11749810_s_at) / Fold change /veh ISYNA1 (11749810_s_at) / RFU ACY1 (11761880_at) / Fold change /veh ACY1 (11761880_at) / RFU 11764098_at / Fold change /veh 11764098_at / RFU SAMD14 (11745864_x_at) / Fold change /veh SAMD14 (11745864_x_at) / RFU NPB (11741838_a_at) / Fold change /veh NPB (11741838_a_at) / RFU TMPRSS6 (11731388_a_at) / Fold change /veh TMPRSS6 (11731388_a_at) / RFU KRTAP10-2 (11738614_at) / Fold change /veh KRTAP10-2 (11738614_at) / RFU ARHGAP8 /// PRR5-ARHGAP8 (11727945_x_at) / Fold change /veh ARHGAP8 /// PRR5-ARHGAP8 (11727945_x_at) / RFU KRTAP5-7 /// NADSYN1 (11734609_at) / Fold change /veh KRTAP5-7 /// NADSYN1 (11734609_at) / RFU RASL12 (11751679_a_at) / Fold change /veh RASL12 (11751679_a_at) / RFU CDKN2B (11736163_a_at) / Fold change /veh CDKN2B (11736163_a_at) / RFU PRF1 (11729649_at) / Fold change /veh PRF1 (11729649_at) / RFU, ZNF638 /// ZNF638-IT1 / Fold change vs veh, ZNF638 /// ZNF638-IT1 / RFU, PANK3 / Fold change vs veh, PANK3 / RFU, SH3YL1 / Fold change vs veh, SH3YL1 / RFU, ZEB2 / Fold change vs veh, ZEB2 / RFU, NRIP1 / Fold change vs veh, NRIP1 / RFU, PTTG1IP / Fold change vs veh, PTTG1IP / RFU, CAPN2 / Fold change vs veh, CAPN2 / RFU, MED14 / Fold change vs veh, MED14 / RFU, SNORA58 / Fold change vs veh, SNORA58 / RFU, C1orf63 / Fold change vs veh, C1orf63 / RFU, LRRFIP1 / Fold change vs veh, LRRFIP1 / RFU, NDUFAF7 / Fold change vs veh, NDUFAF7 / RFU, SLC12A2 / Fold change vs veh, SLC12A2 / RFU, IBTK / Fold change vs veh, IBTK / RFU, ESF1 / Fold change vs veh, ESF1 / Fold change vs veh, TMEM50B / RFU, TAOK1 / Fold change vs veh, TAOK1 / RFU, ACBD3 / Fold change vs veh, ACBD3 / RFU, TMA16 / Fold change vs veh, TMA16 / RFU, RWDD3 / Fold change vs veh, RWDD3 / RFU, BCAT1 / Fold change vs veh, BCAT1 / RFU, EDEM3 / Fold change vs veh, EDEM3 / RFU, TMEM33 / Fold change vs veh, TMEM33 / RFU, WDR75 / Fold change vs veh, WDR75 / RFU, AHCTF1 / Fold change vs veh, AHCTF1 / RFU, TFRC / Fold change vs veh, TFRC / RFU, ZDHHC17 / Fold change vs veh, ZDHHC17 / RFU, NOM1 / Fold change vs veh, NOM1 / RFU, ARL8B / Fold change vs veh, ARL8B / RFU, ZBTB11 / Fold change vs veh, ZBTB11 / RFU, TAMM41 / Fold change vs veh, TAMM41 / RFU, KIAA1704 /// LOC100996395 / Fold change vs veh, KIAA1704 /// LOC100996395 / RFU, ING1 / Fold change vs veh, ING1 / RFU, TRMT61B / Fold change vs veh, TRMT61B / RFU, FUBP3 / Fold change vs veh, FUBP3 / RFU, TP53 / Fold change vs veh, TP53 / RFU, TNKS2 / Fold change vs veh, TNKS2 / RFU, ZFP14 / Fold change vs veh, ZFP14 / RFU, ACTR2 / Fold change vs veh, ACTR2 / RFU, PPP3R1 / Fold change vs veh, PPP3R1 / RFU, PIK3R1 / Fold change vs veh, PIK3R1 / RFU, HNRNPA1 / Fold change vs veh, HNRNPA1 / RFU, RNF170 / Fold change vs veh, RNF170 / RFU, ZNF28 / Fold change vs veh, ZNF28 / RFU, RNGTT / Fold change vs veh, RNGTT / RFU, OGT / Fold change vs veh, OGT / RFU, BRD1 / Fold change vs veh, BRD1 / RFU, MARS / Fold change vs veh, MARS / RFU, ZNF655 / Fold change vs veh, ZNF655 / RFU, FAHD1 / Fold change vs veh, FAHD1 / RFU, BDP1 / Fold change vs veh, BDP1 / RFU, LRRCC1 / Fold change vs veh, LRRCC1 / RFU, ARID1A / Fold change vs veh, ARID1A / RFU, ZNF146 / Fold change vs veh, ZNF146 / RFU, ZNF330 / Fold change vs veh, ZNF330 / RFU, GPN3 / Fold change vs veh, GPN3 / RFU, C9orf123 / Fold change vs veh, C9orf123 / RFU, N4BP2L2 / Fold change vs veh, N4BP2L2 / RFU, ARFIP1 / Fold change vs veh, ARFIP1 / RFU, FAM179B / Fold change vs veh, FAM179B / RFU, BCL10 / Fold change vs veh, BCL10 / RFU, UHRF1BP1L / Fold change vs veh, UHRF1BP1L / RFU, BET1 / Fold change vs veh, BET1 / RFU, CNOT2 / Fold change vs veh, CNOT2 / RFU, ZNF268 / Fold change vs veh, ZNF268 / Fold change vs veh, ZNF507 / RFU, DGCR2 / Fold change vs veh, DGCR2 / RFU, WDSUB1 / Fold change vs veh, WDSUB1 / Fold change vs veh, HSP90B1 /// MIR3652 / RFU, ADSS / Fold change vs veh, ADSS / RFU, GK / Fold change vs veh, GK / RFU, ZNF148 / Fold change vs veh, ZNF148 / RFU, TAF9 / Fold change vs veh, TAF9 / RFU, SLC1A5 / Fold change vs veh, SLC1A5 / RFU, SLMO2 / Fold change vs veh, SLMO2 / RFU, ABCC4 / Fold change vs veh, ABCC4 / RFU, LOC101060439 /// RAP1B / Fold change vs veh, LOC101060439 /// RAP1B / RFU, RFX7 / Fold change vs veh, RFX7 / RFU, GTPBP10 / Fold change vs veh, GTPBP10 / RFU, CNEP1R1 / Fold change vs veh, CNEP1R1 / RFU, BIVM-ERCC5 /// ERCC5 / Fold change vs veh, BIVM-ERCC5 /// ERCC5 / RFU, ILF3 / Fold change vs veh, ILF3 / RFU 11762660_at / Fold change /veh 11762660_at / RFU VCAN (11757783_s_at) / Fold change /veh VCAN (11757783_s_at) / RFU DDX43 (11728927_at) / Fold change /veh DDX43 (11728927_at) / RFU KRT8 (11758188_x_at) / Fold change /veh KRT8 (11758188_x_at) / RFU NKD1 (11759106_at) / Fold change /veh NKD1 (11759106_at) / RFU SRD5A1 (11742802_a_at) / Fold change /veh SRD5A1 (11742802_a_at) / RFU TPSAB1 /// TPSB2 (11721975_s_at) / Fold change /veh TPSAB1 /// TPSB2 (11721975_s_at) / RFU GSTM3 (11746129_a_at) / Fold change /veh GSTM3 (11746129_a_at) / RFU IL23R (11737362_x_at) / Fold change /veh IL23R (11737362_x_at) / RFU TMEM51 (11727254_a_at) / Fold change /veh TMEM51 (11727254_a_at) / RFU PIWIL2 (11732686_x_at) / Fold change /veh PIWIL2 (11732686_x_at) / RFU ORM1 (11744905_x_at) / Fold change /veh ORM1 (11744905_x_at) / RFU CCDC152 (11743942_at) / Fold change /veh CCDC152 (11743942_at) / RFU ECM1 (11717891_a_at) / Fold change /veh ECM1 (11717891_a_at) / RFU IL23R (11748794_a_at) / Fold change /veh IL23R (11748794_a_at) / RFU TNFAIP8L3 (11732012_x_at) / Fold change /veh TNFAIP8L3 (11732012_x_at) / RFU MBOAT4 (11741988_at) / Fold change /veh MBOAT4 (11741988_at) / RFU 11764193_at / Fold change /veh 11764193_at / RFU TMEM53 (11763286_at) / Fold change /veh TMEM53 (11763286_at) / RFU MAGEB2 (11727129_at) / Fold change /veh MAGEB2 (11727129_at) / RFU TMEM200A (11744735_a_at) / Fold change /veh TMEM200A (11744735_a_at) / RFU CCDC152 (11751479_a_at) / Fold change /veh CCDC152 (11751479_a_at) / RFU FAM211A (11726209_a_at) / Fold change /veh FAM211A (11726209_a_at) / RFU RGS16 (11746705_a_at) / Fold change /veh RGS16 (11746705_a_at) / RFU VCAN (11755009_s_at) / Fold change /veh VCAN (11755009_s_at) / RFU RHOB (11743442_s_at) / Fold change /veh RHOB (11743442_s_at) / RFU RGS16 (11720943_a_at) / Fold change /veh RGS16 (11720943_a_at) / RFU RGS16 (11720944_at) / Fold change /veh RGS16 (11720944_at) / RFU, VPS4B / Fold change vs veh, VPS4B / RFU, CREB1 / Fold change vs veh, CREB1 / RFU, DNAJC13 / Fold change vs veh, DNAJC13 / RFU, GNAQ / Fold change vs veh, GNAQ / RFU, CDK5R1 / Fold change vs veh, CDK5R1 / RFU, ZRANB3 / Fold change vs veh, ZRANB3 / RFU, CUL4A / Fold change vs veh, CUL4A / RFU, CCNY / Fold change vs veh, CCNY / RFU, UFL1 / Fold change vs veh, UFL1 / RFU, COG3 / Fold change vs veh, COG3 / RFU, DIAPH2 / Fold change vs veh, DIAPH2 / RFU, SKA2 / Fold change vs veh, SKA2 / RFU, AFF3 / Fold change vs veh, AFF3 / RFU, LMF1 / Fold change vs veh, LMF1 / RFU, IPO11 / Fold change vs veh, IPO11 / RFU, DFFB / Fold change vs veh, DFFB / RFU, FOXP1 / Fold change vs veh, FOXP1 / RFU, CARD8 / Fold change vs veh, CARD8 / RFU, STRN3 / Fold change vs veh, STRN3 / RFU, ADK / Fold change vs veh, ADK / RFU, RASSF2 / Fold change vs veh, RASSF2 / RFU, WIPF1 / Fold change vs veh, WIPF1 / RFU, LARP1B / Fold change vs veh, LARP1B / RFU, RASA1 / Fold change vs veh, RASA1 / RFU, RB1 / Fold change vs veh, RB1 / RFU, PPFIA1 / Fold change vs veh, PPFIA1 / RFU, MAT2A / Fold change vs veh, MAT2A / RFU, CCT5 / Fold change vs veh, CCT5 / RFU, WDR92 / Fold change vs veh, WDR92 / RFU, CUX1 / Fold change vs veh, CUX1 / RFU, TTC7A / Fold change vs veh, TTC7A / RFU, TMEM135 / Fold change vs veh, TMEM135 / RFU, DEPTOR / Fold change vs veh, DEPTOR / RFU, CPM / Fold change vs veh, CPM / RFU, DNAJB6 / Fold change vs veh, DNAJB6 / RFU, CACNA2D3 / Fold change vs veh, CACNA2D3 / RFU, DTX4 / Fold change vs veh, DTX4 / RFU, TFCP2 / Fold change vs veh, TFCP2 / RFU, GMCL1 /// GMCL1P1 / Fold change vs veh, GMCL1 /// GMCL1P1 / RFU, AEBP2 / Fold change vs veh, AEBP2 / RFU, SNHG1 /// SNORD22 /// SNORD25 /// SNORD26 /// SNORD27 /// SNORD28 /// SNORD29 /// SNORD31 / Fold change vs veh, SNHG1 /// SNORD22 /// SNORD25 /// SNORD26 /// SNORD27 /// SNORD28 /// SNORD29 /// SNORD31 / Fold change (Aza/veh), C12orf56 (ProbeSet 11735607_a_at) / Fold change (ACY-1035/veh), C12orf56 (ProbeSet 11735607_a_at) / Fold change (Aza/veh), FGFR1OP (ProbeSet 11751329_s_at) / Fold change (ACY-1035/veh), FGFR1OP (ProbeSet 11751329_s_at) / Fold change (Aza/veh), VPS36 (ProbeSet 11739960_a_at) / Fold change (ACY-1035/veh), VPS36 (ProbeSet 11739960_a_at) / RFU SYPL1 (11715823_x_at) / Fold change /veh SYPL1 (11715823_x_at) / RFU IGFBP7 (11715501_s_at) / Fold change /veh IGFBP7 (11715501_s_at) / RFU REEP3 (11722064_at) / Fold change /veh REEP3 (11722064_at) / RFU IGLL1 (11728026_x_at) / Fold change /veh IGLL1 (11728026_x_at): dose or concentration left out as unconfirmed
# Details: ProbeSet 11723930_at; LIST D
structure (smiles),measurement,value
Nc1ccc(-c2cccs2)cc1NC(=O)c1ccc2c(c1)cc(C1CC1)n2CCN1CCOCC1 [ACY-1035],"Fold change vs veh, CCT5",0.85
